Measured values from patent US10112899B2 (ViiV HEALTHCARE UK LIMITED, priority 2014, dated 2018).

system: HIV in the HTLV-1 transformed cell line MT-4; test: organism not typed; format: cell-based; conditions: MT4, 96 h, MT-4 cells; luciferase/cell titer glo readout after 96 hours; 10 point dose response

Q: With `Cc1c(-c2c(C)c3c(c(C)c2[C@H](OC(C)(C)C)C(=O)O)CN(c2nnc(-c4cccc(F)c4)o2)C3)cc(F)c2c1CCCO2` (atropisomer, axis not shown; (M)) [Example 201, (S)-2-(tert-butoxy)-2-((M)-6-(8-fluoro-5-methylchroman-6-yl)-2-(5-(3-fluorophenyl)-1,3,4-oxadiazol-2-yl)-4,7-dimethylisoindolin-5-yl)acetic acid] as the molecule, how does the IC50 read?
A: 387 nM

Q: With `Cc1c(-c2c(C)c3c(c(C)c2[C@H](OC(C)(C)C)C(=O)O)CN(c2nc4ccccc4o2)C3)cc(F)c2c1CCCO2` (atropisomer, axis not shown; (M)) [Example 202, (S)-2-((M)-2-(benzo[d]oxazol-2-yl)-6-(8-fluoro-5-methylchroman-6-yl)-4,7-dimethylisoindolin-5-yl)-2-(tert-butoxy)acetic acid] as the molecule, how does the IC50 read?
A: 124 nM

Q: Which IC50 does the source give for `Cc1c(-c2c(C)c3c(c(C)c2[C@H](OC(C)(C)C)C(=O)O)CN(c2nnc(Cc4ccc(F)c(F)c4)o2)C3)cc(F)c2c1CCCO2` (atropisomer, axis not shown; (M)) [Example 203, (S)-2-(tert-butoxy)-2-((M)-2-(5-(3,4-difluorobenzyl)-1,3,4-oxadiazol-2-yl)-6-(8-fluoro-5-methylchroman-6-yl)-4,7-dimethylisoindolin-5-yl)acetic acid] here?
A: 63 nM

Q: For `Cc1c(-c2c(C)c3c(c(C)c2[C@H](OC(C)(C)C)C(=O)O)CN(c2nc4cc(F)ccc4o2)C3)cc(F)c2c1CCCO2` (atropisomer, axis not shown; (M)) [Example 204, (S)-2-(tert-butoxy)-2-((M)-6-(8-fluoro-5-methylchroman-6-yl)-2-(5-fluorobenzo[d]oxazol-2-yl)-4,7-dimethylisoindolin-5-yl)acetic acid], which IC50 is on record?
A: 665 nM

Q: Which IC50 does the source give for `Cc1c(-c2c(C)c3c(c(C)c2[C@H](OC(C)(C)C)C(=O)O)CN(C(=O)N2CCCC[C@H]2C)C3)cc(F)c2c1CCCO2` (atropisomer, axis not shown; (M)) [Example 205, (S)-2-(tert-butoxy)-2-((M)-6-(8-fluoro-5-methylchroman-6-yl)-4,7-dimethyl-2-((M)-2-methylpiperidine-1-carbonyl)isoindolin-5-yl)acetic acid] here?
A: 4 nM

Q: For `Cc1c(-c2c(C)c3c(c(C)c2[C@H](OC(C)(C)C)C(=O)O)CN(C(=O)N2CCCC(C)(C)CC2)C3)cc(F)c2c1CCCO2` (atropisomer, axis not shown; (M)) [Example 206, (S)-2-(tert-butoxy)-2-((M)-2-(4,4-dimethylazepane-1-carbonyl)-6-(8-fluoro-5-methylchroman-6-yl)-4,7-dimethylisoindolin-5-yl)acetic acid], which IC50 is on record?
A: 5 nM

Q: Which IC50 does the source give for `Cc1c(-c2c(C)c3c(c(C)c2[C@H](OC(C)(C)C)C(=O)O)CN(C(=O)NCC(C)(C)C)C3)cc(F)c2c1CCCO2` (atropisomer, axis not shown; (M)) [Example 207, (S)-2-(tert-butoxy)-2-((M)-6-(8-fluoro-5-methylchroman-6-yl)-4,7-dimethyl-2-(neopentylcarbamoyl)isoindolin-5-yl)acetic acid] here?
A: 4 nM

Q: For `Cc1c(-c2c(C)c3c(c(C)c2[C@H](OC(C)(C)C)C(=O)O)CN(C(=O)N2CCCC2)C3)cc(F)c2c1CCCO2` (atropisomer, axis not shown; (M)) [Example 208, (S)-2-(tert-butoxy)-2-((M)-6-(8-fluoro-5-methylchroman-6-yl)-4,7-dimethyl-2-(pyrrolidine-1-carbonyl)isoindolin-5-yl)acetic acid], which IC50 is on record?
A: 4 nM

Q: With `Cc1c(-c2c(C)c3c(c(C)c2[C@H](OC(C)(C)C)C(=O)O)CN(C(=O)N2CCOC[C@@H]2C)C3)cc(F)c2c1CCCO2` (atropisomer, axis not shown; (M)) [Example 209, (S)-2-(tert-butoxy)-2-((M)-6-(8-fluoro-5-methylchroman-6-yl)-4,7-dimethyl-2-((S)-3-methylmorpholine-4-carbonyl)isoindolin-5-yl)acetic acid] as the molecule, how does the IC50 read?
A: 23 nM

Q: For `Cc1c(-c2c(C)c3c(c(C)c2[C@H](OC(C)(C)C)C(=O)O)CN(C(=O)Nc2cccc(F)c2)C3)cc(F)c2c1CCCO2` (atropisomer, axis not shown; (M)) [Example 210, (S)-2-(tert-butoxy)-2-((M)-6-(8-fluoro-5-methylchroman-6-yl)-2-((3-fluorophenyl)carbamoyl)-4,7-dimethylisoindolin-5-yl)acetic acid], which IC50 is on record?
A: 14 nM

Q: For `Cc1c(-c2c(C)c3c(c(C)c2[C@H](OC(C)(C)C)C(=O)O)CN(C(=O)N2CCC(C)(C)CC2)C3)cc(F)c2c1CCCO2` (atropisomer, axis not shown; (M)) [Example 211, (S)-2-(tert-butoxy)-2-((M)-2-(4,4-dimethylpiperidine-1-carbonyl)-6-(8-fluoro-5-methylchroman-6-yl)-4,7-dimethylisoindolin-5-yl)acetic acid], which IC50 is on record?
A: 5 nM

Q: How did the IC50 turn out when `Cc1c(-c2c(C)c3c(c(C)c2[C@H](OC(C)(C)C)C(=O)O)CN(C(=O)N2CCC[C@@H]2C)C3)cc(F)c2c1CCCO2` (atropisomer, axis not shown; (M)) [Example 212, (S)-2-(tert-butoxy)-2-((M)-6-(8-fluoro-5-methylchroman-6-yl)-4,7-dimethyl-2-((S)-2-methylpyrrolidine-1-carbonyl)isoindolin-5-yl)acetic acid] was run?
A: 2 nM

Q: How did the IC50 turn out when `Cc1c(-c2c(C)c3c(c(C)c2[C@H](OC(C)(C)C)C(=O)O)CN(C(=O)N2CCC(F)(F)CC2)C3)cc(F)c2c1CCCO2` (atropisomer, axis not shown; (M)) [Example 213, (S)-2-(tert-butoxy)-2-((M)-2-(4,4-difluoropiperidine-1-carbonyl)-6-(8-fluoro-5-methylchroman-6-yl)-4,7-dimethylisoindolin-5-yl)acetic acid] was run?
A: 3 nM

Q: Which IC50 does the source give for `Cc1c(-c2c(C)c3c(c(C)c2[C@H](OC(C)(C)C)C(=O)O)CN(C(=O)N2CCC(C)(C)C2)C3)cc(F)c2c1CCCO2` (atropisomer, axis not shown; (M)) [Example 214, (S)-2-(tert-butoxy)-2-((M)-2-(3,3-dimethylpyrrolidine-1-carbonyl)-6-(8-fluoro-5-methylchroman-6-yl)-4,7-dimethylisoindolin-5-yl)acetic acid] here?
A: 3 nM

Q: For `Cc1c(-c2c(C)c3c(c(C)c2[C@H](OC(C)(C)C)C(=O)O)CN(C(=O)C(=O)N2CCCCC2)C3)cc(F)c2c1CCCO2` (atropisomer, axis not shown; (M)) [Example 215], which IC50 is on record?
A: 10 nM

Q: Which IC50 does the source give for `Cc1c(-c2c(C)c3c(c(C)c2[C@H](OC(C)(C)C)C(=O)O)CN(Cc2cccc4c2OCO4)C3)cc(F)c2c1CCCO2` (atropisomer, axis not shown; (M)) [Example 216, (S)-2-((M)-2-(benzo[d][1,3]dioxol-4-ylmethyl)-6-(8-fluoro-5-methylchroman-6-yl)-4,7-dimethylisoindolin-5-yl)-2-(tert-butoxy)acetic acid] here?
A: 4 nM

Q: Which IC50 does the source give for `Cc1c(-c2c(C)c3c(c(C)c2[C@H](OC(C)(C)C)C(=O)O)CN(C(=O)Oc2ccccc2)C3)cc(F)c2c1CCCO2` (atropisomer, axis not shown; (M)) [Example 217, (S)-2-(tert-butoxy)-2-((M)-6-(8-fluoro-5-methylchroman-6-yl)-4,7-dimethyl-2-(phenoxycarbonyl)isoindolin-5-yl)acetic acid] here?
A: 12 nM
